Among the test systems are MOLT-4 leukemia; UO-31 renal; SNB-19 CNS; NCI-H23 lung; OVCAR-3 ovarian; OVCAR-4 ovarian; SR leukemia; PC-3 prostate; SK-MEL-28 melanoma; NCI-H226 lung; RPMI-8226 leukemia; M14 melanoma; A498 renal.
Holding throughout (assay): NCI-60 cell line screen, 48 h

The structures appear in SMILES notation.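 1) Cells in 96-well plates. 2) Compound, 48 h, 5 concentrations. 3) Linear interpolation between surrounding doses. 4) Unreached endpoint = highest concentration. At the GI50, growth is halved. The concentration for full growth arrest is given as TGI.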 A value given as a limit tells only on which side of the number the result lay.

For `COP(C)(=O)/C(Cc1ccccc1)=N\O` (configuration not stated), the TGI in the experiment on MOLT-4 leukemia, with UO-31 renal, in the experiment on SNB-19 CNS, in the experiment with NCI-H23 lung, with OVCAR-3 ovarian and in the experiment with OVCAR-4 ovarian was above 100 µM each time. Besides, the TGI in the experiment on SR leukemia, in the experiment on PC-3 prostate, with SK-MEL-28 melanoma, with NCI-H226 lung, with RPMI-8226 leukemia and in the experiment on M14 melanoma was above 100 µM throughout.

Consider `CC[N+]1(C)CCC(O)(c2ccc(Cl)cc2)C(C(=O)c2ccc(Cl)cc2)C1` (configuration not stated), for which the TGI was 41.2 µM in the experiment with MOLT-4 leukemia; 34.5 µM in the experiment with UO-31 renal; 31.8 µM with SNB-19 CNS; 38.5 µM in the experiment with NCI-H23 lung; 43.3 µM in the experiment with OVCAR-3 ovarian; 78.4 µM in the experiment with OVCAR-4 ovarian. In addition, the TGI in the experiment on SR leukemia is 36.4 µM; with PC-3 prostate, 33 µM; in the experiment on SK-MEL-28 melanoma it was 29.4 µM; in the experiment on NCI-H226 lung, 48.3 µM; in the experiment on A498 renal, 48.3 µM; with M14 melanoma it was 36.2 µM.

With `O=C(c1cc(Cl)cc(Cl)c1)N(C(=S)OC12CC3CC(CC(C3)C1)C2)c1ccccc1`, the TGI with UO-31 renal is 82.8 µM; in the experiment with SNB-19 CNS it was above 100 µM; in the experiment on NCI-H23 lung it was above 100 µM; in the experiment with OVCAR-3 ovarian it was above 100 µM; in the experiment on OVCAR-4 ovarian it was above 100 µM; in the experiment on SR leukemia, above 100 µM. Further, the TGI was above 100 µM with PC-3 prostate; above 100 µM in the experiment with SK-MEL-28 melanoma; above 100 µM in the experiment with NCI-H226 lung; above 100 µM in the experiment on A498 renal; 56.7 µM in the experiment with M14 melanoma.

On to `CN(C)CCNc1ccc([N+](=O)[O-])c2nc3ccccc3c(N)c12`, for which the TGI in the experiment on MOLT-4 leukemia was 4.74 µM; in the experiment on UO-31 renal, 4.27 µM; with SNB-19 CNS, above 10 µM; in the experiment with NCI-H23 lung, 6.55 µM; in the experiment with OVCAR-3 ovarian it was 3.32 µM; in the experiment on OVCAR-4 ovarian it was 3.58 µM. Further, the TGI in the experiment on SR leukemia is 1.73 µM; with PC-3 prostate, 2.87 µM; in the experiment with SK-MEL-28 melanoma it was above 10 µM; with NCI-H226 lung, above 10 µM; in the experiment on RPMI-8226 leukemia, 1.51 µM; with M14 melanoma, 1.94 µM.

Consider `CC1C(c2ccc3c(c2)OCO3)c2cc3c(cc2OC1N1CCCC1)OCO3` (configuration not stated), for which the TGI is 69.9 µM with MOLT-4 leukemia; 73 µM in the experiment on UO-31 renal; above 100 µM in the experiment with SNB-19 CNS; above 100 µM in the experiment with NCI-H23 lung; above 100 µM with OVCAR-3 ovarian; 89.8 µM with SR leukemia. The TGI in the experiment with PC-3 prostate is above 100 µM; with SK-MEL-28 melanoma, above 100 µM; in the experiment with RPMI-8226 leukemia, 73.2 µM; with M14 melanoma, 57.6 µM.

`CC(=O)Nc1ccc(CNc2cc(=O)[nH]c(=O)[nH]2)cc1`: the TGI with MOLT-4 leukemia, in the experiment with UO-31 renal, with SNB-19 CNS, in the experiment with NCI-H23 lung, in the experiment on OVCAR-3 ovarian and with OVCAR-4 ovarian was above 100 µM throughout. Also, the TGI in the experiment with SR leukemia, in the experiment on PC-3 prostate, in the experiment on SK-MEL-28 melanoma, with NCI-H226 lung, with RPMI-8226 leukemia and with M14 melanoma was above 100 µM throughout.

On to `CC(=O)O[C@H]1CC[C@]2(C)[C@H]3CC[C@@H]4[C@H]5[C@H](C(C)C)CC[C@]5(C(=O)OCC(CO)(CO)N=C(N)N)CC[C@@]4(C)[C@]3(C)CC[C@H]2C1(C)C`, for which the GI50 with MOLT-4 leukemia was 2100 nM; in the experiment with OVCAR-3 ovarian, 1670 nM; with OVCAR-4 ovarian it was 1680 nM; in the experiment with SR leukemia, 2110 nM; with PC-3 prostate it was 1590 nM; with RPMI-8226 leukemia it was 2070 nM. Also, the GI50 with A498 renal is 1860 nM. For the same molecule, the TGI with MOLT-4 leukemia was 4.83 µM; in the experiment with OVCAR-3 ovarian, 3.2 µM; in the experiment on OVCAR-4 ovarian it was 3.32 µM; in the experiment on SR leukemia, 4.61 µM; with PC-3 prostate, 3.09 µM; in the experiment with RPMI-8226 leukemia, 4.81 µM. This molecule gave a TGI with A498 renal of 3.67 µM.

For the molecule `COC(=O)NCCc1[nH]nc2c1C(=O)C=C(Nc1ccccc1)C2=O`, the TGI in the experiment with MOLT-4 leukemia is 54.4 µM; with UO-31 renal, above 100 µM; with SNB-19 CNS, above 100 µM; in the experiment on NCI-H23 lung it was 31.4 µM; with OVCAR-3 ovarian, above 100 µM; in the experiment with OVCAR-4 ovarian, 72 µM. For the same molecule, the TGI was 65.2 µM in the experiment on SR leukemia; above 100 µM in the experiment with PC-3 prostate; above 100 µM in the experiment on RPMI-8226 leukemia; above 100 µM with A498 renal; above 100 µM in the experiment with M14 melanoma.

Take `O=C(N/N=C1\CCc2ccccc2C1)N/N=C1\CCc2ccccc2C1`: the TGI in the experiment with MOLT-4 leukemia, in the experiment with UO-31 renal, with SNB-19 CNS, with NCI-H23 lung, in the experiment with OVCAR-3 ovarian and in the experiment with OVCAR-4 ovarian was above 10 µM in each case. Besides, the TGI in the experiment on SR leukemia, with PC-3 prostate, in the experiment with NCI-H226 lung, in the experiment on RPMI-8226 leukemia and in the experiment on M14 melanoma was above 10 µM throughout.

Take `COC(=O)C1=Nc2c(C)nn(-c3ccccc3)c2N=C(c2ccc(C)cc2)C1`: the TGI in the experiment on MOLT-4 leukemia, with SNB-19 CNS, with NCI-H23 lung, with OVCAR-3 ovarian, in the experiment on OVCAR-4 ovarian and with SR leukemia was above 10 µM each time. Moreover, the TGI with PC-3 prostate, in the experiment on SK-MEL-28 melanoma, with RPMI-8226 leukemia and in the experiment with M14 melanoma was above 10 µM in each case.

As to `Cc1cccc(Nc2cn(COCc3ccccc3)c(=O)[nH]c2=O)c1`, the TGI in the experiment with MOLT-4 leukemia, in the experiment with UO-31 renal, in the experiment with SNB-19 CNS, with NCI-H23 lung, with OVCAR-3 ovarian and in the experiment with OVCAR-4 ovarian was above 100 µM in each case. Also, the TGI in the experiment with SR leukemia, with PC-3 prostate, with SK-MEL-28 melanoma, in the experiment with RPMI-8226 leukemia, in the experiment with A498 renal and in the experiment on M14 melanoma was above 100 µM in each case.

The values are drawn from PubChem BioAssay (NCI).
